Laboratory results taken from ChEMBL document CHEMBL1201862, “PubChem BioAssay data set” (2004).
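Test compounds were applied to cells in 96-well plates for 48 hours at 5 doses. GI50 marks 50% less growth.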 The source made the active and inactive calls. No stated cut-off is given here; in the data, active = GI50 up to about 1.1 µM and inactive = higher.

Key:
Experiment in all cases: NCI anticancer screen, dose series, 48 h
DMS-273 = system: DMS-273
LXFL 529 = system: LXFL 529
SF-539 = system: SF-539
SK-MEL-28 = system: SK-MEL-28
OVCAR-4 = system: OVCAR-4
A498 = system: A498
OVCAR-3 = system: OVCAR-3
M19-MEL = system: M19-MEL
Malme-3M = system: Malme-3M
HOP-92 = system: HOP-92
CCRF-CEM = system: CCRF-CEM
MOLT-4 = system: MOLT-4
HCT-15 = system: HCT-15
KM12 = system: KM12
ACHN = system: ACHN
RXF 631 = system: RXF 631
OVCAR-5 = system: OVCAR-5
SNB-75 = system: SNB-75
OVCAR-8 = system: OVCAR-8
U-251 = system: U-251
UACC-62 = system: UACC-62
HCT-116 = system: HCT-116
HOP-62 = system: HOP-62
UACC-257 = system: UACC-257
SF-295 = system: SF-295
SN12C = system: SN12C
A549 = system: A549
HL-60 = system: HL-60
786-0 = system: 786-0
SNB-19 = system: SNB-19
DMS-114 = system: DMS-114
DLD-1 = system: DLD-1
NCI-H460 = system: NCI-H460
RXF 393 = system: RXF 393
IGROV-1 = system: IGROV-1
HOP-18 = system: HOP-18
COLO 205 = system: COLO 205
SK-MEL-5 = system: SK-MEL-5
HCC 2998 = system: HCC 2998
TK-10 = system: TK-10
SF-268 = system: SF-268
NCI-H23 = system: NCI-H23
CAKI-1 = system: CAKI-1
SK-MEL-2 = system: SK-MEL-2
RPMI-8226 = system: RPMI-8226
XF498 = system: XF498
SNB-78 = system: SNB-78
HT-29 = system: HT-29
SK-OV-3 = system: SK-OV-3
K562 = system: K562
KM-20L2 = system: KM-20L2
SW-620 = system: SW-620
M14 = system: M14
EKVX = system: EKVX
UO-31 = system: UO-31
NCI-H522 = system: NCI-H522
NCI-H226 = system: NCI-H226
LOX IMVI = system: LOX IMVI
SR = system: SR

O=c1cc[nH]c2ccc3nn[nH]c3c12
GI50 (DMS-273): > 100 µM (inactive)
GI50 (LXFL 529): > 100 µM (inactive)
GI50 (SF-539): > 100 µM (inactive)
GI50 (SK-MEL-28): > 100 µM (inactive)
GI50 (OVCAR-4): > 100 µM (inactive)
GI50 (A498): > 100 µM (inactive)
GI50 (OVCAR-3): > 100 µM (inactive)
GI50 (M19-MEL): > 100 µM (inactive)
GI50 (Malme-3M): > 100 µM (inactive)
GI50 (HOP-92): > 100 µM (inactive)
GI50 (CCRF-CEM): > 100 µM (inactive)
GI50 (MOLT-4): > 100 µM (inactive)
GI50 (HCT-15): > 100 µM
GI50 (KM12): > 100 µM (inactive)
GI50 (ACHN): > 100 µM (inactive)
GI50 (RXF 631): > 100 µM (inactive)
GI50 (OVCAR-5): > 100 µM (inactive)
GI50 (SNB-75): > 100 µM (inactive)
GI50 (OVCAR-8): > 100 µM (inactive)
GI50 (U-251): > 100 µM (inactive)
GI50 (UACC-62): > 100 µM (inactive)
GI50 (HCT-116): > 100 µM (inactive)
GI50 (HOP-62): > 100 µM (inactive)
GI50 (UACC-257): > 100 µM (inactive)
GI50 (SF-295): > 100 µM (inactive)
GI50 (SN12C): > 100 µM (inactive)
GI50 (A549): > 100 µM (inactive)
GI50 (HL-60): > 100 µM (inactive)
GI50 (786-0): > 100 µM (inactive)
GI50 (SNB-19): > 100 µM (inactive)
GI50 (DMS-114): > 100 µM (inactive)
GI50 (DLD-1): > 100 µM (inactive)
GI50 (NCI-H460): > 100 µM (inactive)
GI50 (RXF 393): > 100 µM (inactive)
GI50 (IGROV-1): > 100 µM (inactive)
GI50 (HOP-18): > 100 µM (inactive)
GI50 (COLO 205): > 100 µM (inactive)
GI50 (SK-MEL-5): > 100 µM (inactive)
GI50 (HCC 2998): > 100 µM (inactive)
GI50 (TK-10): > 100 µM (inactive)
GI50 (SF-268): > 100 µM (inactive)
GI50 (NCI-H23): > 100 µM (inactive)
GI50 (CAKI-1): > 100 µM (inactive)
GI50 (SK-MEL-2): > 100 µM (inactive)
GI50 (RPMI-8226): > 100 µM (inactive)
GI50 (XF498): > 100 µM (inactive)
GI50 (SNB-78): > 100 µM (inactive)
GI50 (HT-29): > 100 µM (inactive)
GI50 (SK-OV-3): > 100 µM (inactive)
GI50 (K562): > 100 µM (inactive)
GI50 (KM-20L2): > 100 µM (inactive)
GI50 (SW-620): > 100 µM (inactive)
GI50 (M14): > 100 µM (inactive)
GI50 (EKVX): > 100 µM (inactive)

C[C@H](OCc1ccccc1)C(=O)N1CCS(=O)(=O)N2CCC[C@@H]2C1=O
GI50 (LXFL 529): > 100 µM (inactive)
GI50 (SF-539): > 100 µM (inactive)
GI50 (SK-MEL-28): > 100 µM (inactive)
GI50 (OVCAR-4): > 100 µM (inactive)
GI50 (A498): > 100 µM (inactive)
GI50 (OVCAR-3): > 100 µM (inactive)
GI50 (M19-MEL): > 100 µM (inactive)
GI50 (Malme-3M): > 100 µM (inactive)
GI50 (HOP-92): > 100 µM (inactive)
GI50 (CCRF-CEM): > 100 µM (inactive)
GI50 (MOLT-4): > 100 µM (inactive)
GI50 (HCT-15): > 100 µM
GI50 (UO-31): > 100 µM (inactive)
GI50 (KM12): > 100 µM (inactive)
GI50 (ACHN): > 100 µM (inactive)
GI50 (RXF 631): > 100 µM (inactive)
GI50 (OVCAR-5): > 100 µM (inactive)
GI50 (SNB-75): > 100 µM (inactive)
GI50 (OVCAR-8): > 100 µM (inactive)
GI50 (U-251): > 100 µM (inactive)
GI50 (UACC-62): > 100 µM (inactive)
GI50 (HCT-116): > 100 µM (inactive)
GI50 (HOP-62): > 100 µM (inactive)
GI50 (UACC-257): > 100 µM (inactive)
GI50 (SF-295): > 100 µM (inactive)
GI50 (SN12C): > 100 µM (inactive)
GI50 (A549): > 100 µM (inactive)
GI50 (NCI-H522): > 100 µM (inactive)
GI50 (HL-60): > 100 µM (inactive)
GI50 (786-0): > 100 µM (inactive)
GI50 (SNB-19): > 100 µM (inactive)
GI50 (DMS-114): > 100 µM (inactive)
GI50 (DLD-1): > 100 µM (inactive)
GI50 (NCI-H460): > 100 µM (inactive)
GI50 (RXF 393): > 100 µM (inactive)
GI50 (IGROV-1): > 100 µM (inactive)
GI50 (HOP-18): > 100 µM (inactive)
GI50 (COLO 205): > 100 µM (inactive)
GI50 (SK-MEL-5): > 100 µM (inactive)
GI50 (HCC 2998): > 100 µM (inactive)
GI50 (TK-10): > 100 µM (inactive)
GI50 (NCI-H226): > 100 µM (inactive)
GI50 (SF-268): > 100 µM (inactive)
GI50 (NCI-H23): > 100 µM (inactive)
GI50 (CAKI-1): > 100 µM (inactive)
GI50 (RPMI-8226): > 100 µM (inactive)
GI50 (XF498): 0.746 µM (active)
GI50 (SNB-78): > 100 µM (inactive)
GI50 (HT-29): > 100 µM (inactive)
GI50 (SK-OV-3): > 100 µM (inactive)
GI50 (LOX IMVI): > 100 µM (inactive)
GI50 (SR): > 100 µM (inactive)
GI50 (K562): > 100 µM (inactive)
GI50 (KM-20L2): > 100 µM (inactive)
GI50 (SW-620): > 100 µM (inactive)
GI50 (M14): > 100 µM (inactive)
GI50 (EKVX): > 100 µM (inactive)
